Reference: patent US4983328A, “N-(4-(3-aminopropyl)aminobutyl)-2-(ω-gua nidino-fatty-acid-amido(-2-substituted-ethanamide, salt thereof, and process for preparation thereof” (Bristol-Myers Company, priority 1981, dated 1991)
Values after ≈ are worked out from the molar mass of the structure shown.

Tests used:
[1] = test system: mouse leukemia L-1210 cells; assay: growth inhibitory activity to cancer cells in vitro (L-1210, 48 hours); assay type: cell-based; details: for inhibition at 2.5 µg/mL: L1210, 2.5 mcg/ml; for inhibition at 5 µg/mL: L1210, 5 mcg/ml; for inhibition at 10 µg/mL: L1210, 10 mcg/ml; for inhibition at 20 µg/mL: L1210, 20 mcg/ml; for inhibition at 40 µg/mL: L1210, 40 mcg/ml; for IC50: L1210, L-1210 cells, read-out: 50% inhibitory concentration; for inhibition at 80 µg/mL: L1210, 80 mcg/ml; for inhibition at 1.25 µg/mL: L1210, 1.25 mcg/ml
Procedure: DBA/2 mice were implanted with 10^5 mouse leukemia L-1210 cells. The ascites collected asceptically from the mice after 4 days of feeding was washed three times with physiological saline to obtain L-1210 cells, which was then suspended in RPMI 1640 culture medium [G. E. Moore, Journal of the American Medical Association, Vol. 199, 519 (1967); H. J. Morton, In Vitro, Vol. 6, 89 (1970)] to which 10% fetal calf serum and 5 μM 2-mercaptoethanol had been added, and the resulting suspension was diluted to 5×10^4 L-1210 cells per 0.9 ml. A microplate carrying 0.9 ml of the cell suspension and 0.1 ml of the culture medium containing the sample being tested was kept in a carbon dioxide incubator at 37° C. After 48 hours of cultivation, the number of cells was measured by means of a Coulter Counter (Coulter Electronics, Inc., U.S.A.) to obtain the growth inhibition (%)=(1--T/C )×100=[1-(number of grown cells in medium containing sample/(number of grown cells in control medium)]×100. The 50% growth inhibitory concentration was calculated from the values of growth inhibition at varied sample concentrations. The results of tests on typical compounds of this invention for the growth inhibition of L-1210 cells were as shown in Table 6.

mouse leukemia L-1210 = assay: therapeutic effect on implanted cancer in mice (L-1210, survival over 30 days); assay type: in vivo, mouse (BDF1); details: L1210, ip, 720 h, 6 days; for responders at 3.13 mg/kg / response vs control in vivo at 3.13 mg/kg: 3.13 mg/kg/day i.p.; for responders at 3.13 mg/kg / responders at 6.25 mg/kg / responders at 12.5 mg/kg / responders at 25 mg/kg / responders at 1.56 mg/kg / responders at 50 mg/kg / responders at 0.2 mg/kg / responders at 0.39 mg/kg / responders at 0.78 mg/kg: read-out: Number of mice survived for 30 days (converted); for response vs control in vivo at 3.13 mg/kg / response vs control in vivo at 6.25 mg/kg / response vs control in vivo at 12.5 mg/kg / response vs control in vivo at 25 mg/kg / response vs control in vivo at 1.56 mg/kg / response vs control in vivo at 50 mg/kg / response vs control in vivo at 0.2 mg/kg / response vs control in vivo at 0.39 mg/kg / response vs control in vivo at 0.78 mg/kg: read-out: Prolongation of survival period (%), T/C × 100; for responders at 6.25 mg/kg / response vs control in vivo at 6.25 mg/kg: 6.25 mg/kg/day i.p.; for responders at 12.5 mg/kg / response vs control in vivo at 12.5 mg/kg: 12.5 mg/kg/day i.p.; for responders at 25 mg/kg / response vs control in vivo at 25 mg/kg: 25 mg/kg/day i.p.; for responders at 1.56 mg/kg / response vs control in vivo at 1.56 mg/kg: 1.56 mg/kg/day i.p.; for responders at 50 mg/kg / response vs control in vivo at 50 mg/kg: 50 mg/kg/day i.p.; for responders at 0.2 mg/kg / response vs control in vivo at 0.2 mg/kg: 0.20 mg/kg/day i.p.; for responders at 0.39 mg/kg / response vs control in vivo at 0.39 mg/kg: 0.39 mg/kg/day i.p.; for responders at 0.78 mg/kg / response vs control in vivo at 0.78 mg/kg: 0.78 mg/kg/day i.p.
Source text: BDF1 strain male mice (5 weeks old) were each inoculated intraperitoneally with 10^5 mouse leukemia L-1210 cells and treated once a day by intraperitoneal injection with a test compound dissolved in physiological saline for 6 consecutive days beginning from the day of inoculation. The mice were then observed for 30 days to determine the rate of prolongation of survival period=100×T/C=100×(average survival days of treated group)/(average survival days of control group).

[2] = acute toxicity in mice (single intraperitoneal administration); details: mouse, in vivo, ip; mice, single i.p.; read-out: LD50 (median lethal dose on single administration)
Procedure: (§1) In Table 8 median lethal doses (LD50) of typical compounds of this invention are shown, measured in mice upon single intraperitoneal administration, as well as maximum tolerated doses in terms of total dose when a fixed amount per unit body weight was administered intraperitoneally to mice once a day for 6 consecutive days.
*Median lethal dose on single administration.

[3] = cumulative toxicity in mice (maximum tolerated dose, once a day for 6 consecutive days); details: mouse, in vivo, ip, i.p. once a day for 6 consecutive days, total dose, read-out: Maximum Tolerated Dose (total dose not causing death)
Procedure: as §1
**Maximum value of the total dose not causing death when a fixed amount
per unit body weight is administered to mice once a day for 6 consecutive

[4] = read-out: Growth inhibition (%), (1-T/C) × 100

Compound	inhibition at 2.5 µg/mL [1, 4]	inhibition at 5 µg/mL [1, 4]	inhibition at 10 µg/mL [1, 4]	inhibition at 20 µg/mL [1, 4]	inhibition at 40 µg/mL [1, 4]	IC50 [1]	responders at 3.13 mg/kg (mouse leukemia L-1210)	response vs control in vivo at 3.13 mg/kg (mouse leukemia L-1210)	responders at 6.25 mg/kg (mouse leukemia L-1210)	response vs control in vivo at 6.25 mg/kg (mouse leukemia L-1210)	responders at 12.5 mg/kg (mouse leukemia L-1210)	response vs control in vivo at 12.5 mg/kg (mouse leukemia L-1210)	responders at 25 mg/kg (mouse leukemia L-1210)	response vs control in vivo at 25 mg/kg (mouse leukemia L-1210)	LD50 [2]	MTD [3]	responders at 1.56 mg/kg (mouse leukemia L-1210)	response vs control in vivo at 1.56 mg/kg (mouse leukemia L-1210)	responders at 50 mg/kg (mouse leukemia L-1210)	response vs control in vivo at 50 mg/kg (mouse leukemia L-1210)	further results
CCOC(NC(=O)C[C@@H](O)CCCCNC(=N)N)C(=O)NCCCCNCCCN (stereo partly shown) [Compound 23, N-[4-(3-aminopropyl)aminobutyl]-2-(7-guanidino-3-hydroxyheptanamido)-2-ethoxyethanamide]	58.5%	85.5%	93%	96.1%	96.4%	2.2 mg/L (≈ 5.1 µM)	0%	104%	0%	119%	0%	129%	0%	200%	> 25 mg/kg	> 150 mg/kg	–	–	–	–	–
COC(NC(=O)CCCCCCCNC(=N)N)C(=O)NCCCCNCCCN (stereo not shown) [Compound 10, N-[4-(3-aminopropyl)aminobutyl]-2-(8-guanidinooctanamido)-2-methoxyethanamide]	–	19.9%	28.5%	36.5%	52.4%	39 mg/L (≈ 93.8 µM)	0%	100%	0%	107%	0%	129%	0%	0%	12.5 to 25 mg/kg	> 75 mg/kg	0%	100%	0%	0%	inhibition at 80 µg/mL [1, 4]: 62.4%; inhibition at 160 µg/mL ([1]; L1210, 160 mcg/ml, read-out: Growth inhibition (%), (1-T/C) × 100): 79.5%
COC(NC(=O)CCCCCCCCNC(=N)N)C(=O)NCCCCNCCCN (stereo not shown) [Compound 11, N-[4-(3-aminopropyl)aminobutyl]-2-(9-guanidinononanamido)-2-methoxyethanamide]	–	35%	52.2%	59.4%	71.8%	10 mg/L (≈ 23.3 µM)	50%	> 357%	75%	> 393%	50%	> 357%	0%	0%	12.5 to 25 mg/kg	> 75 mg/kg	0%	200%	0%	0%	inhibition at 80 µg/mL [1, 4]: 77.9%; responders at 0.2 mg/kg (mouse leukemia L-1210): 0%; response vs control in vivo at 0.2 mg/kg (mouse leukemia L-1210): 107%; responders at 0.39 mg/kg (mouse leukemia L-1210): 0%; response vs control in vivo at 0.39 mg/kg (mouse leukemia L-1210): 143%; responders at 0.78 mg/kg (mouse leukemia L-1210): 0%; response vs control in vivo at 0.78 mg/kg (mouse leukemia L-1210): 200%
N=C(N)NCCCCC=CC(=O)NC(O)C(=O)NCCCCNCCCN (stereo not shown) [Compound 16, N-[4-(3-aminopropyl)aminobutyl]-2-(7-guanidino-2-heptenamido)-2-hydroxyethanamide]	22.6%	31.1%	32.5%	56.3%	–	17 mg/L (≈ 44.1 µM)	50%	> 343%	50%	> 350%	50%	> 354%	0%	236%	25 to 50 mg/kg	> 150 mg/kg	0%	233%	0%	0%	responders at 0.78 mg/kg (mouse leukemia L-1210): 0%; response vs control in vivo at 0.78 mg/kg (mouse leukemia L-1210): 129%
N=C(N)NCCCCCCCCC(=O)NC(O)C(=O)NCCCCNCCCN (stereo not shown) [Compound 6, N-[4-(3-aminopropyl)aminobutyl]-2-(9-guanidinononanamido)-2-hydroxyethanamide]	40.3%	45.5%	50.3%	57.5%	–	8 mg/L (≈ 19.3 µM)	50%	> 386%	100%	> 429%	100%	> 429%	0%	0%	12.5 to 25 mg/kg	> 75 mg/kg	75%	> 393%	0%	0%	inhibition at 1.25 µg/mL [1, 4]: 38%; responders at 0.2 mg/kg (mouse leukemia L-1210): 50%; response vs control in vivo at 0.2 mg/kg (mouse leukemia L-1210): > 354%; responders at 0.39 mg/kg (mouse leukemia L-1210): 50%; response vs control in vivo at 0.39 mg/kg (mouse leukemia L-1210): > 383%; responders at 0.78 mg/kg (mouse leukemia L-1210): 100%; response vs control in vivo at 0.78 mg/kg (mouse leukemia L-1210): > 429%
N=C(N)NCCCCCC=CC(=O)NC(O)C(=O)NCCCCNCCCN (stereo not shown) [Compound 17, N-[4-(3-aminopropyl)aminobutyl]-2-(8-guanidino-2-octenamido)-2-hydroxyethanamide]	4.5%	13.3%	16.5%	33.7%	52.5%	70 mg/L (≈ 175 µM)	–	–	–	–	–	–	–	–	12.5 to 25 mg/kg	> 75 mg/kg	–	–	–	–	inhibition at 1.25 µg/mL [1, 4]: 2.1%
N=C(N)NCCCCCC(=O)NC(O)C(=O)NCCCCNCCCN (stereo not shown) [Compound 3, N-[4-(3-aminopropyl)aminobutyl]-2-(6-guanidinohexanamido)-2-hydroxyethanamide]	36.7%	64.2%	81.6%	86.7%	–	3.7 mg/L (≈ 9.91 µM)	–	–	–	–	–	–	–	–	> 50 mg/kg	> 300 mg/kg	–	–	–	–	inhibition at 1.25 µg/mL [1, 4]: 20.6%
CCOC(NC(=O)CCCCCCNC(=N)N)C(=O)NCCCCNCCCN (stereo not shown) [Compound 12, N-[4-(3-aminopropyl)aminobutyl]-2-(7-guanidinoheptanamido)-2-ethoxyethanamide]	21.5%	31.1%	38.4%	47.3%	58.6%	21 mg/L (≈ 50.5 µM)	–	–	–	–	–	–	–	–	12.5 to 25 mg/kg	> 75 mg/kg	–	–	–	–	inhibition at 80 µg/mL [1, 4]: 73.5%
